Measurements: patent US20250171438A1 (Agios Pharmaceuticals, Inc., priority 2022, published 2025)

biological target: T1, human PAH with the R408W mutation (Homo sapiens, UniProt P00439, R408W); assay: Cell Based Phenylalanine Flux Assay; settings: A375 cells expressing human R408W PAH; 24 hrs compound incubation; 13C-Tyrosine by LC-MS; average where tested multiple times; read-out: AC50
T1 construct: expressed in transfected cells
T1 sequence (P00439 1-452 R408W): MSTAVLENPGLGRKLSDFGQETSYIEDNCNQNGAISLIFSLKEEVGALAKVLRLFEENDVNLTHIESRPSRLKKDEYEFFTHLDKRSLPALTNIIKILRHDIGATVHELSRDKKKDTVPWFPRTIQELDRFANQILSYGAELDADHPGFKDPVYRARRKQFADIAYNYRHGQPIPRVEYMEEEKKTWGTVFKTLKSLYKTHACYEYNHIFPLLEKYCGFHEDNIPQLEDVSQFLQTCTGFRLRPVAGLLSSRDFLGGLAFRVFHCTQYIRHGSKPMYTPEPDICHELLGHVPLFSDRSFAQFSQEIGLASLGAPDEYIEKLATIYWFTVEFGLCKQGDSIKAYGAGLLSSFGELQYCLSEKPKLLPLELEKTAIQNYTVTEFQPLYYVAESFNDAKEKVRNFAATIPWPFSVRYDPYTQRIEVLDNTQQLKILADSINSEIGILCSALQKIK

| SMILES | AC50 |
| --- | --- |
| O=C(c1cncs1)N1CCc2[nH]cnc2[C@H]1c1nc2cc(F)ccc2s1 [Example 1193, (S)-(4-(5-fluorobenzo[d]thiazol-2-yl)-6,7-dihydro-1H-imidazo[4,5-c]pyridin-5(4H)-yl)(thiazol-5-yl)methanone] | 1000 to 5000 nM |
| O=C(c1cncs1)N1CCc2[nH]cnc2[C@@H]1c1nc2cc(F)ccc2s1 [Example 1194, (R)-(4-(5-fluorobenzo[d]thiazol-2-yl)-6,7-dihydro-1H-imidazo[4,5-c]pyridin-5(4H)-yl)(thiazol-5-yl)methanone] | > 5000 nM |
| O=C(c1nccs1)N1CCc2[nH]cnc2[C@@H]1c1nc2cccc(Br)c2s1 [Example 1199, (R)-(4-(7-bromobenzo[d]thiazol-2-yl)-6,7-dihydro-1H-imidazo[4,5-c]pyridin-5(4H)-yl)(thiazol-2-yl)methanone] | 1000 to 5000 nM |
| O=C(c1nccs1)N1CCc2[nH]cnc2[C@H]1c1nc2cccc(Br)c2s1 [Example 1200, (S)-(4-(7-bromobenzo[d]thiazol-2-yl)-6,7-dihydro-1H-imidazo[4,5-c]pyridin-5(4H)-yl)(thiazol-2-yl)methanone] | 500 to 1000 nM |
| O=C(c1nccs1)N1CCc2[nH]cnc2[C@H]1c1nc2c(Cl)cccc2s1 [Example 1201, (S)-(4-(4-chlorobenzo[d]thiazol-2-yl)-6,7-dihydro-1H-imidazo[4,5-c]pyridin-5(4H)-yl)(thiazol-2-yl)methanone] | 1000 to 5000 nM |
| O=C(c1nccs1)N1CCc2[nH]cnc2[C@@H]1c1nc2c(Cl)cccc2s1 [Example 1202, (R)-(4-(4-chlorobenzo[d]thiazol-2-yl)-6,7-dihydro-1H-imidazo[4,5-c]pyridin-5(4H)-yl)(thiazol-2-yl)methanone] | 1000 to 5000 nM |
| O=C(c1cnc(-c2ccccc2)s1)N1CCc2[nH]cnc2[C@H]1c1nc2ccccc2s1 [Example 1203] | 500 to 1000 nM |
| O=C(c1cnc(-c2ccccc2)s1)N1CCc2[nH]cnc2[C@@H]1c1nc2ccccc2s1 [Example 1204, (R)-(4-(benzo[d]thiazol-2-yl)-6,7-dihydro-1H-imidazo[4,5-c]pyridin-5(4H)-yl)(2-phenylthiazol-5-yl)methanone] | 1000 to 5000 nM |
| O=C(c1cnc(-c2ccccn2)s1)N1CCc2[nH]cnc2[C@H]1c1nc2ccccc2s1 [Example 1205] | < 500 nM |
| O=C(c1cnc(-c2ccccn2)s1)N1CCc2[nH]cnc2[C@@H]1c1nc2ccccc2s1 [Example 1206, (R)-(4-(benzo[d]thiazol-2-yl)-6,7-dihydro-1H-imidazo[4,5-c]pyridin-5(4H)-yl)(2-(pyridin-2-yl)thiazol-5-yl)methanone] | 1000 to 5000 nM |
| O=C(c1cnc(-c2ccccc2)o1)N1CCc2[nH]cnc2[C@H]1c1nc2ccccc2s1 [Example 1207] | < 500 nM |
| O=C(c1cnc(-c2ccccc2)o1)N1CCc2[nH]cnc2[C@@H]1c1nc2ccccc2s1 [Example 1208, (R)-(4-(benzo[d]thiazol-2-yl)-6,7-dihydro-1H-imidazo[4,5-c]pyridin-5(4H)-yl)(2-phenyloxazol-5-yl)methanone] | 1000 to 5000 nM |
| O=C(c1cnn2cc(-c3ccccc3)ccc12)N1CCc2[nH]cnc2[C@H]1c1nc2ccccc2s1 [Example 1209] | 1000 to 5000 nM |
| O=C(c1cnn2cc(-c3ccccc3)ccc12)N1CCc2[nH]cnc2[C@@H]1c1nc2ccccc2s1 [Example 1210, (R)-(4-(benzo[d]thiazol-2-yl)-6,7-dihydro-1H-imidazo[4,5-c]pyridin-5(4H)-yl)(6-phenylpyrazolo[1,5-a]pyridin-3-yl)methanone] | > 5000 nM |

Other lines, results leading:

| AC50 | SMILES |
| --- | --- |
| 1000 to 5000 nM | O=C(c1cnn2cc(C3CC3)ccc12)N1CCc2[nH]cnc2[C@@H]1c1nc2ccccc2s1 [Example 1192, (R)-(4-(benzo[d]thiazol-2-yl)-6,7-dihydro-1H-imidazo[4,5-c]pyridin-5(4H)-yl)(6-cyclopropylpyrazolo[1,5-a]pyridin-3-yl)methanone] |
| < 500 nM | O=C(c1cnn2ccc(Cl)cc12)N1CCc2[nH]cnc2[C@H]1c1nc2c(F)cccc2s1 [Example 1195] |
| 1000 to 5000 nM | O=C(c1cnn2ccc(Cl)cc12)N1CCc2[nH]cnc2[C@@H]1c1nc2c(F)cccc2s1 [Example 1196, (R)-(5-chloropyrazolo[1,5-a]pyridin-3-yl)(4-(4-fluorobenzo[d]thiazol-2-yl)-6,7-dihydro-1H-imidazo[4,5-c]pyridin-5(4H)-yl)methanone] |
| 500 to 1000 nM | COc1ccn2ncc(C(=O)N3CCc4[nH]cnc4[C@H]3c3nc4c(F)cccc4s3)c2c1 [Example 1197, (S)-(4-(4-fluorobenzo[d]thiazol-2-yl)-6,7-dihydro-1H-imidazo[4,5-c]pyridin-5(4H)-yl)(5-methoxypyrazolo[1,5-a]pyridin-3-yl)methanone] |
| 1000 to 5000 nM | COc1ccn2ncc(C(=O)N3CCc4[nH]cnc4[C@@H]3c3nc4c(F)cccc4s3)c2c1 [Example 1198, (R)-(4-(4-fluorobenzo[d]thiazol-2-yl)-6,7-dihydro-1H-imidazo[4,5-c]pyridin-5(4H)-yl)(5-methoxypyrazolo[1,5-a]pyridin-3-yl)methanone] |
| 500 to 1000 nM | O=C(c1cnn2cc(-c3ccccn3)ccc12)N1CCc2[nH]cnc2[C@H]1c1nc2ccccc2s1 [Example 1211] |
| > 5000 nM | O=C(c1cnn2cc(-c3ccccn3)ccc12)N1CCc2[nH]cnc2[C@@H]1c1nc2ccccc2s1 [Example 1212, (R)-(4-(benzo[d]thiazol-2-yl)-6,7-dihydro-1H-imidazo[4,5-c]pyridin-5(4H)-yl)(6-(pyridin-2-yl)pyrazolo[1,5-a]pyridin-3-yl)methanone] |
| < 500 nM | Cn1cc(-c2ccc3c(C(=O)N4CCc5[nH]cnc5[C@H]4c4nc5ccccc5s4)cnn3c2)cn1 [Example 1213] |
| 1000 to 5000 nM | Cn1cc(-c2ccc3c(C(=O)N4CCc5[nH]cnc5[C@@H]4c4nc5ccccc5s4)cnn3c2)cn1 [Example 1214, (R)-(4-(benzo[d]thiazol-2-yl)-6,7-dihydro-1H-imidazo[4,5-c]pyridin-5(4H)-yl)(6-(1-methyl-1H-pyrazol-4-yl)pyrazolo[1,5-a]pyridin-3-yl)methanone] |
| < 500 nM | O=C(c1cnn2cc(F)ccc12)N1CCc2[nH]cnc2[C@H]1c1nc2c(F)cccc2s1 [Example 1215, (S)-(4-(4-fluorobenzo[d]thiazol-2-yl)-6,7-dihydro-1H-imidazo[4,5-c]pyridin-5(4H)-yl)(6-fluoropyrazolo[1,5-a]pyridin-3-yl)methanone] |
| 1000 to 5000 nM | O=C(c1cnn2cc(F)ccc12)N1CCc2[nH]cnc2[C@@H]1c1nc2c(F)cccc2s1 [Example 1216, (R)-(4-(4-fluorobenzo[d]thiazol-2-yl)-6,7-dihydro-1H-imidazo[4,5-c]pyridin-5(4H)-yl)(6-fluoropyrazolo[1,5-a]pyridin-3-yl)methanone] |
| 500 to 1000 nM | O=C(c1cncs1)N1CCc2[nH]cnc2[C@H]1c1nc2c(F)cccc2s1 [Example 1217, (S)-(4-(4-fluorobenzo[d]thiazol-2-yl)-6,7-dihydro-1H-imidazo[4,5-c]pyridin-5(4H)-yl)(thiazol-5-yl)methanone] |
| 1000 to 5000 nM | O=C(c1cncs1)N1CCc2[nH]cnc2[C@@H]1c1nc2c(F)cccc2s1 [Example 1218, (R)-(4-(4-fluorobenzo[d]thiazol-2-yl)-6,7-dihydro-1H-imidazo[4,5-c]pyridin-5(4H)-yl)(thiazol-5-yl)methanone] |
| < 500 nM | O=C(c1ncc(Cl)s1)N1CCc2[nH]cnc2[C@H]1c1nc2c(F)cccc2s1 [Example 1219] |
